Earlier results as cited in US20050090660A1, “2'-deoxy-L-nucleosides” (priority 1999, published 2005).

Experiments:
[1] = test system: HIV; conditions: specificity versus HBV
[2] = target: T1, polymerase γ (Homo sapiens, UniProt P54098); conditions: polymerase responsible for mitochondrial DNA chain elongation
T1 sequence (P54098 1-1239): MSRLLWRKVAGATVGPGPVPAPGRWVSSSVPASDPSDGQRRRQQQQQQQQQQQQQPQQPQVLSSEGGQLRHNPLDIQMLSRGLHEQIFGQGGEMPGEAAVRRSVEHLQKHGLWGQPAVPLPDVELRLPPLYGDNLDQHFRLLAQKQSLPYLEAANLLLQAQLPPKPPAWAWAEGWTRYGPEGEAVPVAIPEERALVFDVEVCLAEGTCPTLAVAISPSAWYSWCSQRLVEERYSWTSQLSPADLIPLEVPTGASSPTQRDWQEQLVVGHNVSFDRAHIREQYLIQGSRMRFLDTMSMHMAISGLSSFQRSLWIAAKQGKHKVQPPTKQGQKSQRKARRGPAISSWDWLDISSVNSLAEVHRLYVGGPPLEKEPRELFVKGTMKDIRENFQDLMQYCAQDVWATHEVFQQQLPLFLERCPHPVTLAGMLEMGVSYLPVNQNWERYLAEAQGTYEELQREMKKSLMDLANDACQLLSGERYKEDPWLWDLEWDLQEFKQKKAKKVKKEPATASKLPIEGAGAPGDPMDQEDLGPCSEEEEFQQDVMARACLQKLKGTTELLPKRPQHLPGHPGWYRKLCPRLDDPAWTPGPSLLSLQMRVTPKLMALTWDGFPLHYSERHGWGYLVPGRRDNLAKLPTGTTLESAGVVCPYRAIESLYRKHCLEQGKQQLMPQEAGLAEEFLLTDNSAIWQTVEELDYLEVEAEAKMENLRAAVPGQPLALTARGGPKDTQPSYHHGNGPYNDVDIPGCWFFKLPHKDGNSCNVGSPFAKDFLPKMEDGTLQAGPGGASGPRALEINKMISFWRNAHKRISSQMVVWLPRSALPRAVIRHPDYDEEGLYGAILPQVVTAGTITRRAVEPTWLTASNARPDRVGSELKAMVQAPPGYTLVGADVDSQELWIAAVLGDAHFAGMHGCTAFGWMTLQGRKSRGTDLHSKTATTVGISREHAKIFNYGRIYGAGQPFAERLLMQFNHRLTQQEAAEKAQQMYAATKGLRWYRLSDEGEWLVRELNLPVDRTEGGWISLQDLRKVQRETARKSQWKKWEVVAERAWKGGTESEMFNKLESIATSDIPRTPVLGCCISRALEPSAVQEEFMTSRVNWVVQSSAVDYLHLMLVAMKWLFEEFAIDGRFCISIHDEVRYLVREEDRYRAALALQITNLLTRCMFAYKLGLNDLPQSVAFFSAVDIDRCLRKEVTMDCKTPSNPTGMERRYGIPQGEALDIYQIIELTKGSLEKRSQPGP

[3] = test system: uninfected HepG2 cells
[4] = test system: mitochondrial DNA synthesis and lactic acid production
[5] = test system: hepatoma cell lines
[6] = test system: HBV; conditions: HBV patients, two and four week courses

| lactic acid production [5] | SMILES | activity against HIV [1] | substrate activity for polymerase γ [2] | IC50 [3] [µM] | effect on lactic acid production [4] | effect on mitochondrial DNA synthesis [4] | morphological changes in HepG2 cells ([3]; treated at up to 100 μM) | suppression of serum HBV DNA levels [6] [%] | patients who died from hepatic failure (of the 7 patients with delayed hepatotoxicity, trial with 15 patients) | patients with delayed hepatotoxicity (prolonged treatment trial with 15 patients) [patients] |
| --- | --- | --- | --- | --- | --- | --- | --- | --- | --- | --- |
|  | Cc1cn([C@@H]2C[C@@H](O)[C@H](CO)O2)c(=O)[nH]c1=O [L-dThd, 2′-Deoxy-β-L-thymidine] | not HIV | little, if any | > 200 | no effect | no effect |  |  |  |  |
| no significant | Cc1cn([C@H]2O[C@@H](CO)[C@H](O)[C@H]2F)c(=O)[nH]c1=O [L-FMAU] |  |  |  |  |  |  |  |  |  |
|  | Nc1ccn([C@@H]2C[C@@H](O)[C@H](CO)O2)c(=O)n1 [L-dCyd, 2′-deoxy-β-L-cytidine] | not HIV | little, if any | > 200 | no effect | no effect |  |  |  |  |
|  | Nc1ncnc2c1ncn2[C@@H]1C[C@@H](O)[C@H](CO)O1 [L-dAdo, 2′-deoxy-β-L-adenosine] | not HIV | little, if any |  | no effect | no effect | no morphological changes |  |  |  |
|  | O=c1[nH]c(=O)n([C@@H]2O[C@H](CO)[C@@H](O)[C@@H]2F)cc1I [FIAU] |  |  |  |  |  |  | ≤ 95 | 5 | 7 |
